According to the Deep4Chem optical property database:

Experiment: solvent given as SMILES
[1] = in O=P(c1ccccc1)(c1ccccc1)c1ccccc1Oc1ccccc1P(=O)(c1ccccc1)c1ccccc1

With `COc1ccc(N(c2ccc(OC)cc2)c2ccc3ccc4c(B(c5c(C)cc(C)cc5C)c5c(C)cc(C)cc5C)ccc5ccc2c3c54)cc1` the fluorescence lifetime (in C1CCOC1) was 3.2 ns, the fluorescence lifetime (in CC(C)=O) was 0.7 ns and the fluorescence lifetime (in CCCCCC) was 6.2 ns. The fluorescence lifetime (in Cc1ccccc1) was 8.2 ns, the fluorescence lifetime (in ClC(Cl)Cl) was 8.5 ns and the fluorescence lifetime (in ClCCl) was 3.9 ns.

Molecule `COc1ccc(Oc2ccc3c4c(cccc24)C(=O)N(c2c(C(C)C)cccc2C(C)C)C3=O)cc1` has a fluorescence lifetime (in ClCCl) of 4.9 ns.

In the case of `CC(C)(C)c1ccc2ccc3c(C(C)(C)C)ccc4ccc1c2c43`, the fluorescence lifetime (in CCCCCC) is reported as 60.9 ns, the fluorescence lifetime (in CO) is reported as 78.6 ns and the fluorescence lifetime (in ClCCl) is reported as 43.1 ns.

In the case of `O=C(O)c1c2ccccc2nc2ccccc12`, the fluorescence lifetime (in C1CCOC1) is reported as 1.1 ns, the fluorescence lifetime (in C1COCCO1) is reported as 0.9 ns and the fluorescence lifetime (in CC#N) is reported as 0.8 ns. For the same molecule, the fluorescence lifetime (in CCCCCO) was 0.7 ns, the fluorescence lifetime (in CCCCO) was 0.8 ns and the fluorescence lifetime (in CCCO) was 0.7 ns. For the same molecule, the fluorescence lifetime (in CCO) was 0.6 ns, the fluorescence lifetime (in CO) was 0.8 ns and the fluorescence lifetime (in COCCOC) was 1.5 ns. The fluorescence lifetime (in ClC(Cl)Cl) was 0.6 ns, the fluorescence lifetime (in ClCCl) was 0.9 ns and the fluorescence lifetime (in OCCO) was 0.8 ns.

In the case of `COc1ccc(-n2c(C)ccc2C)cc1`, the fluorescence lifetime (in CC#N) is reported as 5 ns.

With `O=P1(c2ccccc2)c2cc(N3c4ccccc4Sc4ccccc43)ccc2-c2ccc(N3c4ccccc4Sc4ccccc43)cc21` the fluorescence lifetime (in c1ccc2c(c1)c1ccccc1n2-c1ccc(-c2ccc(-n3c4ccccc4c4ccccc43)cc2)cc1) was 46.1 ns.

In the case of `CC[n+]1c(C=C2C(=O)C(C=C3N(C)c4ccccc4C3(C)C)=C2[O-])[se]c2ccccc21`, the fluorescence lifetime (in CO) is reported as 0.41 ns and the fluorescence lifetime (in ClC(Cl)Cl) is reported as 2.44 ns.

With `CC(=O)c1ccc(-c2cc(C)[o+]c(C)c2)cc1` the fluorescence lifetime (in ClCCl) was 2 ns.

With `CC1(C)c2ccccc2N(c2cc[n+]3c(c2)-c2ccccc2O[B-]3(F)F)c2ccccc21` the fluorescence lifetime [1] was 6.2 ns.

`COc1cc2c(cc1-c1ccccc1)Cc1c3c(c4c(c1-2)-c1cc(OC)c(-c2ccccc2)cc1C4)C(=O)N(CCC(C)C)C3=O` showed a fluorescence lifetime (in C1CCOC1) of 3.87 ns, a fluorescence lifetime (in CC#N) of 6.33 ns and a fluorescence lifetime (in CC(C)=O) of 5.36 ns. For the same molecule, the fluorescence lifetime (in CCOC(C)=O) was 3.99 ns, the fluorescence lifetime (in CS(C)=O) was 6.41 ns and the fluorescence lifetime (in Cc1ccccc1) was 2.55 ns. For the same molecule, the fluorescence lifetime (in ClC(Cl)Cl) was 5.95 ns and the fluorescence lifetime (in ClCCl) was 5.64 ns.

Molecule `CC1=C(c2cccs2)C(C)=[N+]2C1=C(c1ccc(OS(=O)(=O)c3ccc([N+](=O)[O-])cc3[N+](=O)[O-])cc1)c1c(C)c(-c3cccs3)c(C)n1[B-]2(F)F` has a fluorescence lifetime (in Cc1ccccc1) of 3.6 ns.

Work on `CC(C)(C)c1ccc(C#Cc2cc3ccc4cc(C#Cc5ccc(C(C)(C)C)cc5)cc5ccc(c2)c3c45)cc1` yielded a fluorescence lifetime (in ClCCl) of 37.1 ns.

Work on `N#Cc1ccc(-c2ccc3c(c2)c2cc(-c4ccc(C#N)cc4)ccc2c2c3nc(-c3ccc(-c4ccc(N(c5ccccc5)c5ccccc5)cc4)cc3)n2-c2ccccc2)cc1` yielded a fluorescence lifetime (in C1CCOC1) of 1.51 ns, a fluorescence lifetime (in CC#N) of 2.86 ns and a fluorescence lifetime (in CCCCCC) of 1.04 ns. The fluorescence lifetime (in CCOCC) was 1.29 ns.

For `COc1cc(OC)c2c(c1)C(=O)c1cc(OC)cc(OC)c1-2`, the fluorescence lifetime (in C1CCCCC1) was 0.8 ns.

For `CC1(C)CC(/N=C/c2ccc3ccc4cccc5ccc2c3c45)CC(C)(C)N1[O]`, the fluorescence lifetime (in C1CCCCC1) was 8.3 ns and the fluorescence lifetime (in CO) was 2.1 ns.

For `COc1ccc(-c2c3ccccc3c(C#Cc3ccccc3)c3ccccc23)cc1`, the fluorescence lifetime (in ClCCl) was 2.8 ns.

With `CCOC(=O)c1ccc(C2=Cc3cc4ccccc4cc3P2(=O)c2ccccc2)cc1` (stereo unspecified) the fluorescence lifetime (in ClCCl) was 2.8 ns.

`CN(C)/C=N\c1ccc2c3c(cccc13)C(=O)c1ccccc1-2` showed a fluorescence lifetime (in ClC(Cl)Cl) of 7.96 ns.

Work on `[C-]#[N+]c1ccc(-c2ccc(N)cc2)cc1` yielded a fluorescence lifetime (in CC#N) of 2 ns and a fluorescence lifetime (in CCOC(C)=O) of 1.7 ns.

`O=S(=O)(c1ccc(N2c3ccccc3[Si](c3ccccc3)(c3ccccc3)c3ccccc32)cc1)c1ccc(N2c3ccccc3[Si](c3ccccc3)(c3ccccc3)c3ccccc32)cc1` gave a fluorescence lifetime (in c1cc(-n2c3ccccc3c3ccccc32)cc(-n2c3ccccc3c3ccccc32)c1) of 4 ns.

With `COc1ccc(-c2c3cc4ccccc4cc3c(C#Cc3ccccc3)c3cc4cc(C)sc4cc23)cc1` the fluorescence lifetime (in ClCCl) was 11.6 ns.

With `Cc1cc2cc3cc(C)c(C)cc3cc2cn1` the fluorescence lifetime (in CCO) was 18 ns.

`CCN(CC)c1ccc(/N=N/c2nc3ccc(OC)cc3s2)cc1` showed a fluorescence lifetime (in CC#N) of 2.72 ns and a fluorescence lifetime (in ClCCl) of 3.13 ns.

Molecule `CCOC(=O)/N=c1/oc2cc(OC)ccc2cc1C#N` has a fluorescence lifetime (in ClCCl) of 0.8 ns.

Molecule `N#Cc1c(-n2c3ccc(-c4ccccc4)cc3c3cc(-c4ccccc4)ccc32)c(-n2c3ccccc3c3ccccc32)c(-n2c3ccc(-c4ccccc4)cc3c3cc(-c4ccccc4)ccc32)c(-n2c3ccccc3c3ccccc32)c1-n1c2ccc(-c3ccccc3)cc2c2cc(-c3ccccc3)ccc21` has a fluorescence lifetime (in Cc1ccccc1) of 5.2 ns.

`[NH3+]c1cc([NH3+])cc(-c2[nH+]c3ccccc3s2)c1` gave a fluorescence lifetime (in O) of 0.52 ns.

With `O=C(O)c1ccc(-c2ccc(-c3nc(-c4ccccc4)c4ccccn34)cc2)s1` the fluorescence lifetime (in CC#N) was 1.5 ns.

Molecule `COc1ccc2c(c1)c1c(OC)c3ccccc3c(OC)c1n2C` has a fluorescence lifetime (in C1CCCCC1) of 24.1 ns, a fluorescence lifetime (in CC#N) of 31 ns and a fluorescence lifetime (in CO) of 30.7 ns. It also gave a fluorescence lifetime (in ClCCl) of 27.1 ns.

`c1cc2c3c(c1)ccc1[n+]3[B-]3(Oc4cccc5ccc6[n+](c45)[B-](O2)(O3)n2c-6cc3c4ccccc4c4ccccc4c32)n2c-1cc1c3ccccc3c3ccccc3c12` gave a fluorescence lifetime (in ClCCl) of 3.65 ns.

`F[B-]1(F)n2c(c3cccc4cccc2c43)=Nc2cccc[n+]21` gave a fluorescence lifetime (in ClCCl) of 7.1 ns.

With `c1ccc(-c2nc(-c3ccccc3)nc(-c3ccc(-n4c5ccccc5c5c6c(ccc54)-c4ccccc4C6(c4ccccc4)c4ccccc4)cc3)n2)cc1` the fluorescence lifetime [1] was 3.3 ns.
